Earlier results on one compound are cited in patent US20240238221A1, “[…] TREATING NEUROPATHIC PAIN IN COVID-19 PATIENTS” (Grünenthal GmbH, priority 2021, published 2024).

The conditions of series [1]: at analgesic doses vs. Morphine.
For series [2] the following is noted: in the investigated dose ranges; vs. morphine, oxycodone or hydromorphone.
The next series deals with serotonin reuptake. The settings on record: unlike tramadol.
The test system of series [3] is UGT1A6, UGT1A9 and UGT2B7. Particulars: mediated via UGT mainly UGT1A6, UGT1A9 and UGT2B7 isoforms.

The structures appear in SMILES notation.

For `CC[C@@H](c1cccc(O)c1)[C@@H](C)CN(C)C` [Tapentadol], in series [1], the immunosuppressive activity result is listed as “lower immunosuppressive activity”. For the same compound, the analgesic efficacy result in series [2] is “comparable to that of typical strong opioids”. Further, the serotonin reuptake inhibition entry with serotonin reuptake was “only weak serotonin reuptake inhibition”. Further, the major elimination pathway entry in series [3] is “conjugation with glucuronic acid”. Moreover, in the series on CYP450, the “risk of drug-drug interactions at the CYP450 level” value is on record as “low risk”.
